Experimental data taken from patent publication US5324725A, “7-fused 2-(piperazinoalkyl) indole derivatives, intermediates and compositions thereof” (Kali-Chemie Pharma GmbH, priority 1991, dated 1994).

Legend:
[1] = system: Histamine-induced anaphylactoid reactions; test: Inhibition of anaphylactoid cutaneous reaction induced by histamine; format: in vivo, rat (Sprague-Dawley); conditions: Rattus norvegicus, 1 h; rats, 2 × 10^-5 mol/kg p.o., one hour before challenge; histamine intradermal
In short: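 Animals received 50 μl intradermal histamine (0.8 mg/ml in saline) in the flank opposite the antiserum site, just before i.v. ovalbumin plus blue dye. Test substance at 2×10^-5 mol/kg was given orally 1 h before challenge in water with 1% DMF and 1% Tween 20. Blue-dye exudation was scored visually at 30 min, giving % inhibition versus solvent controls.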

[2] = system: P.A.F.-induced aggregation of platelets from rabbit blood; test: Anti-P.A.F. effect in vitro: inhibition of P.A.F.-induced platelet aggregation; format: cell-based, rabbit (New Zealand hybrids); conditions: Oryctolagus cuniculus, Platelet, test substance concentration 10^-5 mol/l
In short: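 Washed, aspirin-treated rabbit platelets (4×10^9/ml stock suspension) in modified Tyrode buffer, pH 7.4, preincubated 90 s with test compound at 10^-5 mol/l final, then challenged with P.A.F. Aggregation followed 4–5 min in an aggregometer. Inhibition expressed in % relative to P.A.F.-only (100%) and platelet-only (0%) controls.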

SMILES | inhibition in vivo at 20 µmol/kg [1] [%] | inhibition at 10 µM [2] [%]
Cc1ccnc(N2CCN(CCc3c(C)n4c5c(cccc35)CCC4)CC2)c1 [Example 1, 5,6-Dihydro-2-methyl-1-{2-[4-(4-methylpyridin-2-yl)piperazin-1-yl]ethyl}-4H-pyrrolo[3,2,1-ij]quinoline] | 85 | 97
Cc1ccnc(N2CCN(CCc3c(C)n4c5c(ccc(Cl)c35)OCC4)CC2)c1 [Example 35] | 58 | 56
Cc1ccnc(N2CCN(CCc3c(C)n4c5c(cc(C)cc35)CCC4)CC2)c1 [Example 54] | 73 | 75
C=CCCC1CCc2cccc3c(CCN4CCN(c5cc(C)ccn5)CC4)c(C)n1c23 (stereo not shown) [Example 62] | 95 | 70
Cc1ccnc(N2CCN(CCc3c(C)n4c5c(cc(NC(=O)c6ccccc6)cc35)CCC4)CC2)c1 [Example 25, 8-Benzoylamino-5,6-dihydro-2-methyl-1-{2-[4-(4-methylpyridin-2-yl)piperazin-1-yl]-ethyl}-4H-pyrrolo[3,2,1-ij]quinoline] | 100 | 43
Cc1cc2c3c(c1)c(CCN1CCC(C(=O)c4ccc(F)cc4)CC1)c(C)n3CCC2 [Example 55] | 50 | 40
Cc1ccnc(N2CCN(CCc3c(C)n4c5c(cc(C(=O)C(C)C)cc35)CCC4)CC2)c1 [Example 27, 5,6-dihydro-2-methyl-8-(2-methyl-1-oxopropyl)-1-{2-[4-(4-methylpyridin-2-yl)piperazin-1-yl]ethyl}-4H-pyrrolo-[3,2,1-ij]quinoline] | 95 | 83
Cc1ccnc(N2CCN(CCc3c(C)n4c5c(cc(C(=O)c6ccccc6)cc35)CCC4)CC2)c1 [Example 66] | 70 | 100
COc1ccc(-c2c(CCN3CCN(c4cc(C)ccn4)CC3)c3cccc4c3n2CCC4)cc1 [Example 7, 2-(4-methoxy-phenyl)-1-{2-[4-(4-methylpyridin-2-yl)piperazin-1-yl]ethyl}-5,6-dihydro-4H-pyrrolo[3,2,1-ij]quinoline] | 35 | 100
CCc1c(C(O)CN2CCN(c3cc(C)ccn3)CC2)c2cccc3c2n1CCC3 (stereo not shown) [Example 14, 2-Ethyl-5,6-dihydro-1-{2-[4-(4-methylpyridin-2-yl)piperazin-1-yl]-1-hydroxyethyl}-4H-pyrrolo[3,2,1-ij]quinoline] | 25 | 86
Cc1ccnc(N2CCN(CCc3c(C)n4c5c(cc([N+](=O)[O-])cc35)CCC4)CC2)c1 [Example 10, 2-Methyl-8-nitro-1-{2-[4-(4-methylpyridin-2-yl)-piperazin-1-yl]ethyl}-5,6-dihydro-4H-pyrrolo[3,2,1-ij]quinoline] | 75 | 94
